Results published in patent US5041567A, “Antibacterial monic acid derivatives” (Beecham Group plc, priority 1982, dated 1991).
In brackets after ≈: the same amount, converted by molar mass. Read-outs that look alike come from different tables or passages of the source.

What was measured:
[1] = system: M. suipneumoniae TAM 6N; test: MIC against mycoplasma in vitro; type: cell-based; settings: Mesomycoplasma hyopneumoniae, TAM6N, 144 h
[2] = system: Past. haemolytica PA5; test: MIC against veterinary bacteria in vitro; settings: Mannheimia haemolytica, PA5, 18 h
Procedure: (§1) The activity of the compounds of the Examples against various veterinarily important bacteria, was assayed in vitro using two-fold serial dilutions in Diagnostic Sensitivity Test Agar inoculated with 10^4 organisms.

[3] = system: M. hyorhinis ATCC 25021; test: MIC against mycoplasma in vitro; type: cell-based; settings: Mesomycoplasma hyorhinis, ATCC25021, 144 h
[4] = system: E. coli NCTC 10418; test: MIC against human bacteria in vitro; type: cell-based; settings: Escherichia coli, NCTC10418; E. coli NCTC 10418; agar with 5% chocolated horse blood, 18 hours, 37° C.; read-out: MIC
[5] = system: Staph. aureus 152 (pen. sens); test: MIC against veterinary bacteria in vitro; settings: Staphylococcus aureus, 18 h
Procedure: as §1

[6] = system: Haemophilus influenzae Wy21; test: MIC against human bacteria in vitro; type: cell-based; settings: Haemophilus influenzae Wy21; 5% chocolated horse blood agar, 18 hours; read-out: MIC
[7] = system: M. suipneumoniae JF 435; test: MIC against mycoplasma in vitro; type: cell-based; settings: Mesomycoplasma hyopneumoniae, JF435, 144 h
[8] = system: Strep. agalactiae 2788-B; test: MIC against human bacteria in vitro; type: cell-based; settings: Streptococcus agalactiae; Strep. agalactiae 2788-B; 5% chocolated horse blood agar, 18 hours; read-out: MIC
[9] = system: E. coli NCTC 10418; test: MIC against veterinary bacteria in vitro; settings: Escherichia coli, NCTC10418, 18 h
Procedure: as §1

[10] = system: Staph. aureus W2827; test: MIC against human bacteria in vitro; type: cell-based; settings: Staphylococcus aureus; Staph. aureus W2827; 5% chocolated horse blood agar, 18 hours; read-out: MIC
[11] = system: Strep. pyogenes R80/421-A; test: MIC against human bacteria in vitro; type: cell-based; settings: Streptococcus pyogenes; Strep. pyogenes R80/421-A; 5% chocolated horse blood agar, 18 hours; read-out: MIC
[12] = system: M. suipneumoniae MS 16; test: MIC against mycoplasma in vitro; type: cell-based; settings: Mesomycoplasma hyopneumoniae, MS16, 144 h
[13] = system: Strep. suis (group D) SPS11; test: MIC against veterinary bacteria in vitro; settings: Streptococcus suis, 18 h
Procedure: as §1

[14] = system: Past. multocida PA1; test: MIC against veterinary bacteria in vitro; settings: Pasteurella multocida, PA1, 18 h
Procedure: as §1

[15] = system: M. gallisepticum S6; test: MIC against mycoplasma in vitro; type: cell-based; settings: Mycoplasmoides gallisepticum
[16] = system: Staph. aureus Russell; test: MIC against human bacteria in vitro; type: cell-based; settings: Staphylococcus aureus; Staph. aureus Russell; 5% chocolated horse blood agar, 18 hours; read-out: MIC
[17] = system: M. suipneumoniae ATCC 25095; test: MIC against mycoplasma in vitro; type: cell-based; settings: Mesomycoplasma hyopneumoniae, ATCC25095, 144 h
[18] = system: M. suipneumoniae NB12; test: MIC against mycoplasma in vitro; type: cell-based; settings: Mesomycoplasma hyopneumoniae, NB12, 144 h
[19] = system: P. mirabilis 889; test: MIC against human bacteria in vitro; type: cell-based; settings: Proteus mirabilis; P. mirabilis 889; 5% chocolated horse blood agar, 18 hours; read-out: MIC
[20] = system: S. dublin S7; test: MIC against veterinary bacteria in vitro; settings: Salmonella enterica, S7, 18 h
Procedure: as §1

[21] = system: M. suipneumoniae NCTC 10110; test: MIC against mycoplasma in vitro; type: cell-based; settings: Mesomycoplasma hyopneumoniae, NCTC10110, 144 h
[22] = system: M. suipneumoniae Str. 11; test: MIC against mycoplasma in vitro; type: cell-based; settings: Mesomycoplasma hyopneumoniae
[23] = system: Corynebacterium xerosis 9755; test: MIC against human bacteria in vitro; type: cell-based; settings: Corynebacterium xerosis 9755; 5% chocolated horse blood agar, 18 hours; read-out: MIC
[24] = system: Sarcina lutea 8340; test: MIC against human bacteria in vitro; type: cell-based; settings: Micrococcus luteus; Sarcina lutea 8340; 5% chocolated horse blood agar, 18 hours; read-out: MIC
[25] = system: M. bovigenitalium ATCC 14173; test: MIC against mycoplasma in vitro; type: cell-based; settings: 144 h
[26] = system: Ps. aeruginosa NCTC 10662; test: MIC against human bacteria in vitro; type: cell-based; settings: Pseudomonas aeruginosa, NCTC10662; Ps. aeruginosa NCTC 10662; 5% chocolated horse blood agar, 18 hours; read-out: MIC
[27] = system: M. suipneumoniae UCD 1; test: MIC against mycoplasma in vitro; type: cell-based; settings: Mesomycoplasma hyopneumoniae, UCD1, 144 h
[28] = system: E. coli E1; test: MIC against veterinary bacteria in vitro; settings: Escherichia coli, E1, 18 h
Procedure: as §1

[29] = system: Past. multocida PA2; test: MIC against veterinary bacteria in vitro; settings: Pasteurella multocida, PA2, 18 h
Procedure: as §1

[30] = system: M. dispar NCTC 10125; test: MIC against mycoplasma in vitro; type: cell-based; settings: 144 h
[31] = system: Strep. agalactiae SPA1; test: MIC against veterinary bacteria in vitro; settings: Streptococcus agalactiae, SPA1, 18 h
Procedure: as §1

[32] = system: Staph. aureus Oxford; test: MIC against human bacteria in vitro; type: cell-based; settings: Staphylococcus aureus; Staph. aureus Oxford; 5% chocolated horse blood agar, 18 hours; read-out: MIC
[33] = system: M. suipneumoniae PW/C/210; test: MIC against mycoplasma in vitro; type: cell-based; settings: Mesomycoplasma hyopneumoniae, 144 h
[34] = M. hyorhinis ATCC 25021, 6 days, 37° C., read-out: MIC
[35] = 144 h, M. suipneumoniae Str. 11, 6 days, 37° C., read-out: MIC
[36] = M. suipneumoniae JF 435, 6 days, 37° C., read-out: MIC

SMILES | MIC [2] [µg/mL] | MIC [4] [µg/mL] | MIC [5] [µg/mL] | MIC [6] [µg/mL] | MIC [8] [µg/mL] | MIC [9] [µg/mL] | MIC [10] [µg/mL] | MIC [11] [µg/mL] | MIC [13] [µg/mL] | MIC [14] [µg/mL] | MIC [16] [µg/mL] | MIC [18] [µg/mL] | MIC [19] [µg/mL] | MIC [20] [µg/mL] | MIC [23] [µg/mL] | MIC [24] [µg/mL] | MIC [25] [µg/mL] | MIC [26] [µg/mL] | MIC [27] [µg/mL] | MIC [28] [µg/mL] | further results
CSc1cccc(-c2cnc(/C=C(\C)C[C@@H]3OC[C@H](C[C@@H]4O[C@H]4[C@@H](C)[C@H](C)O)[C@@H](O)[C@H]3O)o2)c1 [Example 22, 5-m-Methylthiophenyl-2-(1-normon-2-yl)oxazole A] | 80 (≈ 163 µM) | > 128 | 1.25 (≈ 2.55 µM) | 4 (≈ 8.17 µM) | 16 (≈ 32.7 µM) | > 80 | 16 (≈ 32.7 µM) | 8 (≈ 16.3 µM) | 20 (≈ 40.8 µM) | 20 (≈ 40.8 µM) | 16 (≈ 32.7 µM) | 1 (≈ 2.04 µM) | > 128 | > 80 | > 128 | > 128 | 0.1 (≈ 0.204 µM) | > 128 | 1 (≈ 2.04 µM) | > 80 | MIC [1]: 1 µg/mL (≈ 2.04 µM); MIC [3, 34]: 0.5 µg/mL (≈ 1.02 µM); MIC [7]: 1 µg/mL (≈ 2.04 µM); MIC ([12]; M. suipneumoniae MS 16, 6 days, 37° C., read-out: MIC): 0.5 µg/mL (≈ 1.02 µM); MIC ([15]; 144 h, M. gallisepticum S6, 6 days, 37° C., read-out: MIC): 5 µg/mL (≈ 10.2 µM); MIC [17]: 1 µg/mL (≈ 2.04 µM); MIC [21]: 1 µg/mL (≈ 2.04 µM); MIC [22, 35]: 0.5 µg/mL (≈ 1.02 µM); MIC [29]: 10 µg/mL (≈ 20.4 µM); MIC ([30]; M. dispar NCTC 10125, 6 days, 37° C., read-out: MIC): 0.5 µg/mL (≈ 1.02 µM); MIC [31]: 10 µg/mL (≈ 20.4 µM); MIC [32]: 4 µg/mL (≈ 8.17 µM); MIC ([33]; M. suipneumoniae PW/C/210, 6 days, 37° C., read-out: MIC): 0.5 µg/mL (≈ 1.02 µM)
C/C(=C\c1ncc(-c2ccc(C#N)cc2)o1)C[C@@H]1OC[C@H](C[C@@H]2O[C@H]2[C@@H](C)[C@H](C)O)[C@@H](O)[C@H]1O [Example 21, 5-p-Cyanophenyl-2-(1-normon-2-yl) oxazole A] | 20 (≈ 42.7 µM) | > 128 | 0.625 (≈ 1.33 µM) | 2 (≈ 4.27 µM) | 4 (≈ 8.54 µM) | > 80 | 4 (≈ 8.54 µM) | 1 (≈ 2.13 µM) | 10 (≈ 21.3 µM) | 2.5 (≈ 5.34 µM) | 4 (≈ 8.54 µM) | 0.25 (≈ 0.534 µM) | > 128 | > 80 | > 128 | > 128 | 0.05 (≈ 0.107 µM) | > 128 | 0.25 (≈ 0.534 µM) | > 80 | MIC ([1]; M. suipneumoniae TAM 6N, 6 days, 37° C., read-out: MIC): 0.5 µg/mL (≈ 1.07 µM); MIC [3]: 0.25 µg/mL (≈ 0.534 µM); MIC [7, 36]: 0.5 µg/mL (≈ 1.07 µM); MIC [12]: 0.25 µg/mL (≈ 0.534 µM); MIC ([15]; S6, 144 h): 0.25 µg/mL (≈ 0.534 µM); MIC [17]: 0.25 µg/mL (≈ 0.534 µM); MIC ([21]; M. suipneumoniae NCTC 10110, 6 days, 37° C., read-out: MIC): 0.5 µg/mL (≈ 1.07 µM); MIC ([22]; STR.11, 144 h): 0.25 µg/mL (≈ 0.534 µM); MIC [29]: 0.625 µg/mL (≈ 1.33 µM); MIC [30]: 0.1 µg/mL (≈ 0.213 µM); MIC [31]: 1.25 µg/mL (≈ 2.67 µM); MIC [32]: 4 µg/mL (≈ 8.54 µM); MIC [33]: 0.25 µg/mL (≈ 0.534 µM)
C/C(=C\c1ncc(-c2cccc([S+](C)[O-])c2)o1)C[C@@H]1OC[C@H](C[C@@H]2O[C@H]2[C@@H](C)[C@H](C)O)[C@@H](O)[C@H]1O (stereo partly drawn) [Example 25, 5-m-Methylsulphinylphenyl-2-(1-normon-2-yl)oxazole A] | 80 (≈ 158 µM) | > 128 | 10 (≈ 19.8 µM) | 2 (≈ 3.96 µM) | 2 (≈ 3.96 µM) | > 80 | 32 (≈ 63.3 µM) | 2 (≈ 3.96 µM) | 20 (≈ 39.6 µM) | 5 (≈ 9.89 µM) | 32 (≈ 63.3 µM) | 0.25 (≈ 0.494 µM) | > 128 | > 80 | 128 (≈ 253 µM) | 128 (≈ 253 µM) | 0.25 (≈ 0.494 µM) | > 128 | 1 (≈ 1.98 µM) | > 80 | MIC [1]: 1 µg/mL (≈ 1.98 µM); MIC [3, 34]: 0.5 µg/mL (≈ 0.989 µM); MIC [7, 36]: 0.5 µg/mL (≈ 0.989 µM); MIC [12]: 0.25 µg/mL (≈ 0.494 µM); MIC ([15]; S6, 144 h): 2.5 µg/mL (≈ 4.94 µM); MIC ([17]; M. suipneumoniae ATCC 25095, 6 days, 37° C., read-out: MIC): 0.5 µg/mL (≈ 0.989 µM); MIC [21]: 1 µg/mL (≈ 1.98 µM); MIC [22, 35]: 0.5 µg/mL (≈ 0.989 µM); MIC [29]: 2.5 µg/mL (≈ 4.94 µM); MIC [30]: 0.25 µg/mL (≈ 0.494 µM); MIC [31]: 2.5 µg/mL (≈ 4.94 µM); MIC [32]: 4 µg/mL (≈ 7.91 µM); MIC [33]: 0.25 µg/mL (≈ 0.494 µM)
